Test results: ChEMBL document CHEMBL5107976, “Chalcone-amide, a privileged backbone for the design and development of selective SARS-CoV/SARS-CoV-2 papain-like protease inhibitors” (Eur J Med Chem, 2022)
Converted amounts (≈) assume the structure as drawn.

What was measured:
[1] = Inhibition of SARS-CoV PLpro (1541 to 1855 residues) using RLRGG-AMC as substrate preincubated for 5 mins followed by substrate addition measured after 6 mins by fluorescence based assay; design: species or system Severe acute respiratory syndrome-related coronavirus
Human rhinovirus sp. = test: Antiviral activity against HRV infected in human HeLa cells assessed as inhibition in virus replication by plaque assay; assay type: functional, organism-based
[2] = Inhibition of SARS-CoV PLpro using Z-Arg-Leu-Arg-Gly-Gly-AMC acetate as substrate by fluorometric assay; design: species or system Severe acute respiratory syndrome-related coronavirus
[3] = biological target: T1, Replicase polyprotein 1ab (Severe acute respiratory syndrome coronavirus 2, UniProt P0DTD1); test: Inhibition of SARS-CoV-2 PLpro
SARS-CoV-2 [4] = test: Antiviral activity against SARS-CoV-2 infected in human Caco-2 cells expressing hACE2 assessed as reduction in virus replication; assay type: functional, organism-based; details: Severe acute respiratory syndrome coronavirus 2, Caco-2
[5] = biological target: T1, Replicase polyprotein 1ab; test: Inhibition of C-terminal His-tagged SARS-CoV-2 PLpro BetaCoV/Wuhan/WIV04/2019 strain (1564 to 1876 residues) expressed in Escherichia coli BL21(DE3) using FRET substrate measured after 3 hrs by enzymatic assay
SARS-CoV-2 [6] = test: Antiviral activity against SARS-CoV-2 infected in African green monkey Vero E6 cells assessed as reduction in viral replication at MOI of 0.5 incubated for 23 hrs by plaque assay; assay type: functional, organism-based; details: Severe acute respiratory syndrome coronavirus 2, Vero C1008, 23 h
[7] = Cytotoxicity against African green monkey Vero E6 cells assessed as reduction in cell viability; assay type: toxicity, cell-based, Vero C1008; details: chlorocebus sabaeus
SARS-CoV-2 [8] = test: Antiviral activity against SARS-CoV-2 infected in human Caco-2 cells expressing hACE2 assessed as reduction in virus replication incubated for 48 hrs by Western blot analysis; assay type: functional, organism-based; details: Severe acute respiratory syndrome coronavirus 2, Caco-2, 48 h

COc1ccc(CNC(=O)C2CCN(Cc3cccc4ccccc34)CC2)cc1
IC50 [1]: 59.2 µM

CCOc1cc(O)c(C(=O)/C=C/c2ccc(OC)cc2)c(OC)c1
IC50 (Human rhinovirus sp.): 0.045 µg/mL (≈ 0.137 µM)

Cc1ccc(N(C)C)cc1C(=O)N[C@H](C)c1cccc2ccccc12
IC50 [2]: 4 µM

Cc1ccc(NC2CNC2)cc1C(=O)N[C@H](C)c1cccc(-c2ccc(CNC[C@H]3CCCO3)s2)c1
IC50 [3]: 0.76 µM

C[C@H](c1cccc2ccccc12)N(C)Cc1ccc(O)cc1
EC50 (SARS-CoV-2 [4]): 8.32 µM

Cc1ccc(N)cc1CN(C)[C@H](C)c1cccc2ccccc12
IC50 [5]: 0.99 µM | EC50 (SARS-CoV-2 [4]): 8.89 µM

Cc1cc(N)ccc1C(=O)N[C@H](C)c1cccc2ccccc12
IC50 [2]: 1.2 µM | EC50 (SARS-CoV-2 [6]): 15.8 µM | CC50 [7]: > 500 µM

C[C@H](c1cccc2ccccc12)N1Cc2ccc(O)cc2C1
IC50 [2]: 4.5 µM

COc1ccc(CNC(=O)c2c(O)cc(OCC=C(C)C)cc2OC)cc1
IC50 (Human rhinovirus sp.): 0.0072 µg/mL (≈ 0.0194 µM)

C[C@@H](NC(=O)c1ccccc1Cl)c1cccc2ccccc12
IC50 [2]: 6.5 µM | EC50 (SARS-CoV-2 [6]): 1.77 µM | CC50 [7]: 376 µM

C[C@H](c1cccc2ccccc12)N1CCC(C(=O)NCc2cccc(NC(=O)N3CCN(C)CC3)c2)CC1
EC50 (SARS-CoV-2 [8]): 0.6 µM

COc1cc(O)ccc1CN(C)[C@H](C)c1cccc2ccccc12
IC50 [5]: 0.58 µM

C[C@H](c1cccc2ccccc12)N1CCC(C(=O)NCc2cc(F)cc(NC(=O)CN(C)C)c2)CC1
EC50 (SARS-CoV-2 [8]): 0.22 µM

Cc1cc(NS(C)(=O)=O)ccc1C(=O)N[C@H](C)c1cccc2ccccc12
IC50 [2]: 4.8 µM

C[C@H](c1cccc2ccccc12)N1CCC(C(=O)NCc2cc(F)cc(NC(=O)N3CCN(C)CC3)c2)CC1
EC50 (SARS-CoV-2 [8]): 0.18 µM

CNS(=O)(=O)c1ccc(C)c(C(=O)N[C@H](C)c2cccc3ccccc23)c1
IC50 [2]: 4 µM

C[C@H](c1cccc2ccccc12)N1Cc2ccc(N)cc2C1
IC50 [2]: 4.9 µM

CCOc1cc(O)c(C(=O)NCc2ccc(NC)cc2)c(OC)c1
IC50 (Human rhinovirus sp.): 0.022 µg/mL (≈ 0.0666 µM)

C[C@H](c1cccc2ccccc12)N1Cc2ccccc2C1
IC50 [2]: 2.9 µM | EC50 (SARS-CoV-2 [6]): 7.85 µM | CC50 [7]: 442 µM

Cc1ccsc1C(=O)N[C@H](C)c1cccc2ccccc12
IC50 [2]: 14 µM | EC50 (SARS-CoV-2 [6]): 4.74 µM | CC50 [7]: > 500 µM

CCOc1cc(O)c(C(=O)NCc2ccc(OC)cc2)c(OC)c1
IC50 (Human rhinovirus sp.): 0.014 µg/mL (≈ 0.0422 µM)

Cc1ccc(N)cc1C(=O)N[C@H](C)c1cccc2ccccc12
EC50 (SARS-CoV-2 [4]): 25.1 µM
